According to patent publication US7763580B2, “Methods for treating conditions associated with the accumulation of excess extracellular matrix” (University of Utah Research Foundation, priority 1999, dated 2010):

What was measured:
[1] = test system: anti-Thy 1 glomerulonephritis; test: Glomerular mRNA expression (Northern hybridization); assay type: in vivo, Sprague Dawley rats; conditions: enalapril alone
Experimental: These experiments were performed on male Sprague Dawley rats (200-250 g) obtained from the Sasco colony of Charles River Laboratories (Wilmington, Mass., USA). Animal housing and care were in accordance with the NIH Guide for the Care and Use of Laboratory Animals, NIH Publication No. 85-23, 1985. Animals were fed a normal protein diet (22% protein, Teklad No. 86 550, Teklad Premier Laboratory Diets, Madison, Wis., USA). Glomerulonephritis was induced by tail vein injection of 2.25 mg/Kg of the monoclonal anti-Thy 1.1 antibody OX-7 (NCCC, Biovest International Inc, Minneapolis, Minn., USA). OX-7 binds to a Thy 1-like epitope on the surface of mesangial cells causing complement-dependent cell lysis followed by fibrotic tissue repair (Bagchus et al., Lab Invest. 55:680-687 (1986)). Control animals were injected with similar volumes of phosphate-buffered saline (PBS). Groups of 8 rats were assigned and treated as outlined in Table 2. […] Changes in mRNA levels were determined by first correcting for the densitometric intensity of 18S for each sample. For comparison, this ratio was set at unity for normal control samples and other lanes on the same gel were expressed as fold increases over this value. […] The percent reduction in disease severity in a treated group was calculated as:

[2] = test system: anti-Thy 1 glomerulonephritis; test: Glomerular ED1+ monocyte/macrophage count; assay type: in vivo, Sprague Dawley rats; conditions: Enalapril alone, P<0.05
Experimental: These experiments were performed on male Sprague Dawley rats (200-250 g) obtained from the Sasco colony of Charles River Laboratories (Wilmington, Mass., USA). Animal housing and care were in accordance with the NIH Guide for the Care and Use of Laboratory Animals, NIH Publication No. 85-23, 1985. Animals were fed a normal protein diet (22% protein, Teklad No. 86 550, Teklad Premier Laboratory Diets, Madison, Wis., USA). Glomerulonephritis was induced by tail vein injection of 2.25 mg/Kg of the monoclonal anti-Thy 1.1 antibody OX-7 (NCCC, Biovest International Inc, Minneapolis, Minn., USA). OX-7 binds to a Thy 1-like epitope on the surface of mesangial cells causing complement-dependent cell lysis followed by fibrotic tissue repair (Bagchus et al., Lab Invest. 55:680-687 (1986)). Control animals were injected with similar volumes of phosphate-buffered saline (PBS). […] The intensity of glomerular staining of collagen I and fibronectin was evaluated according to a 0 to 4 scale, which has been described in detail previously (Yamamoto et al., Kidney Int. 49:461-469 (1996)). The number of cells per glomerulus, staining positive for the monocyte/macrophage marker ED1, were counted. Thirty glomeruli per sample were evaluated. The mean values with standard error values were calculated. […] The percent reduction in disease severity in a treated group was calculated as: […]

CCOC(=O)[C@H](CCc1ccccc1)N[C@@H](C)C(=O)N1CCC[C@H]1C(=O)O [enalapril]
reduction of TGF-β1 mRNA [1]: 29%
reduction of number of ED1+ cells [2]: 62%
